Reference: publication PMC8456950, “Structure‐Guided Design of G‐Protein‐Coupled Receptor Polypharmacology” (Angewandte Chemie (International Ed. in English), 2021)
Entries after “also recorded” stand apart in the source; their conditions may differ.

Columns and labels:
[1] = Blood-brain distribution in rats; type: in vivo; details: male, Sprague Dawley, rat, 24 mg kg^−1 IP
Method: Blood-brain distribution. Measurements of blood-brain distribution in rats were performed by Admescope (Finland). The male Sprague Dawley rats (120-157 g) were housed in air-conditioned rooms (12h dark/light cycle) at 22 °C and a humidity of 55%. Animals were allowed to acclimatize to the site for at least five days prior to the study.
Compound 30 (24 mg/kg, formulated in 17% DMSO in saline) was administered intraperitoneally and blood samples were collected at 10, 30, and 50 min after dosing. Within 30 min following the sampling, the blood was centrifuged for plasma separation (room temperature; 10 min; 2700 G). The plasma samples were transferred into plastic tubes, frozen and stored at –20 °C until analysis. Brains were perfused under terminal isoflurane anaesthesia at 10, 30 and 50 min after dosing (n=6 per time point). For the perfusion, the heart of the rat was expo sed and major veins leading to the right atrium were severed. […]
Evaluation of compound 30 in rodent model of Parkinsonism. […] Two weeks after the unilateral 6-OHDA lesion, rats were injected with apomorphine (1 mg/kg, IP; Sigma) and their contralateral rotations were measured to determine the degree of nigrostriatal denervation. […] The number of rotations was calculated automatically with Noldus EthoVision XT11. […]

[2] = system: unilaterally 6-OHDA lesioned rats; experiment: Rotation test in unilaterally 6-OHDA lesioned rats (model of Parkinsonism); type: in vivo
Method: Evaluation of compound 30 in rodent model of Parkinsonism. Male Sprague Dawley rats (150-200 g) were housed in air-conditioned rooms (12h dark/light cycle) at 20°C and a humidity of 53%. Experiments were performed in agreement with the European Communities Council Directive of 24 November 1986 (86/609/EEC) on the ethical use of animals and were approved by the local ethical committee (Stockholm North Ethical Committee, N105/16). Rats were anesthetized with ketamine (100 mg/kg, IP; Intervet)/xylazine (5 mg/kg, IP; Bayer, Kiel, Germany), pretreated with desipramine (25 mg/kg, IP; Sigma, St Louis, MO, USA)/pargyline (5 mg/kg, IP; Sigma), placed in a stereotaxi c instrument and injected with 6-OHDA (2.5 µl of a 5mg/ml solution; Sigma) into the median forebrain bundle (MFB) of the right hemisphere (AP -2.8 mm, ML -2.0 mm and V -9.0 mm). Two weeks after the unilateral 6-OHDA lesion, rats were injected with apomorphine (1 mg/kg, IP; Sigma) and their contralateral rotations were measured to determine the degree of nigrostriatal denervation. Four weeks after surgery, rats that were divided into two group according to the number of apomorphine-induced rotations. The rats were treated either with DMSO(17%)/saline (n=6) or compound 30 (n=7, 24 mg/kg, IP) dissolved in DMSO(17%)/saline. The number of rotations was calculated automatically with Noldus EthoVision XT11. 5 Software for 30 min following the drug administration. The two […]
groups were then compared by using a Mann-Whitney test. A second set of independent experiments using a new set of rats were carried out using the same protocol to assess the involvement of the D2R in the observed effect. In this case, rats were divided into four groups according to the number of apomorphine-induced rotations. The rats were treated with either DMSO(17%)/saline (n=6), raclopride (n=7, 2mg/kg, IP) dissolved in DMSO(17%)/saline, compound 30 (n=7, 24 mg/kg, IP) dissolved in DMSO(17%)/saline or the combination of raclopride (30 min pretreatment) and compound 30 (n=7). The rotation test was then performed for 30 min. […]

Structure (SMILES): CCCN(CCCCC(=O)Nc1nc2c(OC)ccc(OC)c2s1)C1Cc2ccccc2C1 [Compound 30]
- concentration at 30 min ([1]; brain, at 30 min, read-out: total concentration in the brain): ~3000 nM
- Kp at 0.5 h ([1]; brain/plasma, peak after 30 min, mean±SD, read-out: brain-to-plasma ratio): 0.79 ± 0.13
- contralateral rotations (net rotations, 30 min) versus control group ([2]; 24 mg kg^−1 IP, 6-OHDA lesioned rats, p<0.01 first set, p<0.05 independent second set): significantly higher number of contralateral rotations; also recorded: significant increase of contralateral rotations
- effect on contralateral rotations in combination with D2 antagonist raclopride ([2]; 30 at 24 mg kg^−1 IP with raclopride 2 mg kg^−1 IP (30 min pretreatment)): reversed
